Earlier results in publication PMC8391575, “Identification of Novel Cathepsin B Inhibitors with Implications in Alzheimer’s Disease: Computational Refining and Biochemical Evaluation” (Cells, 2021).
Where two headings read alike, the source gives them in different places. Where a SMILES comes first, the peptide text is derived from it.

Test system: cathepsin B
Conditions: cited from earlier work
[1] = class of the experimental IC50, read-out: Activity Scale Experimental
[2] = Figure 1, previously reported inhibitors of cathepsin B, read-out: IC50
[3] = Table S1, read-out: IC50: half maximal inhibitory concentration
[4] = read-out: Activity Scale Experimental

| SMILES | pIC50 Experimental (Table 4) | IC50 [1] [nM] | further results |
| --- | --- | --- | --- |
| COc1cccc(Cn2c(-c3nonc3N)nc3ccccc32)c1 [Compound S27, 4-[1-[(3-methoxyphenyl)methyl]benzimidazol-2-yl]-1,2,5-oxadiazol-3-amine] | 4.34 | > 2500 | – |
| CC(=O)OC1(C(F)(F)F)Oc2ccccc2NC1=O (stereo not drawn) [Compound S33, [3-oxo-2-(trifluoromethyl)-4H-1,4-benzoxazin-2-yl] acetate] | 6.07 | 300 to 2500 | – |
| COc1ccccc1/N=C/c1nc(-c2ccccc2)oc1OC(C)=O [Compound S20, [4-[(2-methoxyphenyl)iminomethyl]-2-phenyl-1,3-oxazol-5-yl] acetate] | 5.05 | > 2500 | – |
| Cn1c(=O)c2c(-c3ccccc3)n(-n3cnnc3)cc2n(C)c1=O [Compound S30, 1,3-dimethyl-5-phenyl-6-(1,2,4-triazol-4-yl)pyrrolo[3,4-d]pyrimidine-2,4-dione] | 5.93 | 300 to 2500 | – |
| CCSc1ccccc1C(=O)n1nnc2ccccc21 [Compound S28, benzotriazol-1-yl-(2-ethylsulfanylphenyl)methanone] | 5.15 | > 2500 | – |
| O=c1cc(-c2ccc(O)c(-c3c(O)cc(O)c4c(=O)cc(-c5ccc(O)cc5)oc34)c2)oc2cc(O)cc(O)c12 [Compound N3, 8-[5-(5,7-dihydroxy-4-oxochromen-2-yl)-2-hydroxyphenyl]-5,7-dihydroxy-2-(4-hydroxyphenyl)chromen-4-one] | 5.76 | 300 to 2500 | IC50 [2]: 1170 nM; IC50 [3]: 1750 nM |
| CC(C)C[C@H](NC(=O)[C@H]1O[C@@H]1C(=O)O)C(=O)NCCCCN=C(N)N [Compound N13, (2S,3S)-3-[[(2S)-1-[4-(diaminomethylideneamino)butylamino]-4-methyl-1-oxopentan-2-yl]carbamoyl]oxirane-2-carboxylic acid] | 8.28 | < 300 | – |
| Cc1c2ccncc2c(C)c2c1[nH]c1ccccc12 [Compound N12, 5,11-dimethyl-6H-pyrido[4,3-b]carbazole] | 7.99 | < 300 | – |
| CC1=C(O)C(=O)C=C2C1=CC=C1[C@@]2(C)CC[C@@]2(C)[C@@H]3C[C@](C)(C(=O)O)CC[C@]3(C)CC[C@]12C [Compound N8, (2R,4aS,6aR,6aS,14aS,14bR)-10-hydroxy-2,4a,6a,6a,9,14a-hexamethyl-11-oxo-1,3,4,5,6,13,14,14b-octahydropicene-2-carboxylic acid] | 3.91 | > 2500 | IC50 [3]: 1250 nM; IC50 (read-out: IC50): 125000 nM |
| CCn1nc(-c2ccccc2)nc2c(=O)n(C)c(=O)nc1-2 [Compound S9, 1-ethyl-6-methyl-3-phenylpyrimido[5,4-e][1,2,4]triazine-5,7-dione] | – | – | pIC50 Experimental: 7.15; IC50 [4]: < 300 nM |
| CCC(C)[C@@H](NC(=O)OC(C)(C)C)c1nnc(S(=O)(=O)Cc2cccc(C)c2)o1 (stereo partly drawn) [Compound S23, tert-butyl N-[(1R)-2-methyl-1-[5-[(3-methylphenyl)methylsulfonyl]-1,3,4-oxadiazol-2-yl]butyl]carbamate] | 5.68 | 300 to 2500 | – |
| Cn1ncnc2c(=O)n(C)c(=O)nc1-2 [Compound N22, 1,6-dimethylpyrimido[5,4-e][1,2,4]triazine-5,7-dione] | 7.34 | < 300 | – |
| COc1ccc(S(=O)(=O)n2nc(OC(=O)c3ccc(C)cc3)cc2N)cc1 [Compound S8] | 4.91 | > 2500 | – |
| CC(C)CCNC(=O)[C@H](CC(C)C)NC(=O)[C@H]1O[C@@H]1C(=O)O [Compound N14, (2S,3S)-3-[[(2S)-4-methyl-1-(3-methylbutylamino)-1-oxopentan-2-yl]carbamoyl]oxirane-2-carboxylic acid] | – | – | pIC50 Experimental: 8.47; IC50 [4]: < 300 nM |
| CC(=O)NC(CC(C)C)C(=O)NC(C(=O)NC(C=O)CCCCN)C(C)C (stereo not drawn) [Compound S3, 2-acetamido-N-[1-[(6-amino-1-oxohexan-2-yl)amino]-3-methyl-1-oxobutan-2-yl]-4-methylpentanamide] (Ac-Leu-Val-Lys-aldehyde; configuration not given here) | 8.4 | < 300 | – |
| N#Cc1c(N2CCCC2)nc(N)c2c(N)nc(N3CCCC3)cc12 [Compound S29, 1,8-diamino-3,6-dipyrrolidin-1-yl-2,7-naphthyridine-4-carbonitrile] | 5.49 | > 2500 | – |
| Cc1ccc(S(=O)(=O)n2nc(OC(=O)c3ccco3)cc2N)cc1 [Compound S12, [5-amino-1-(4-methylphenyl)sulfonylpyrazol-3-yl] furan-2-carboxylate] | 5.76 | 300 to 2500 | IC50 [3]: 1750 nM |
| NCCCCNC(=O)[C@H](Cc1ccc(O)cc1)NC(=O)[C@H]1O[C@@H]1C(=O)O [Compound N7, (2S,3S)-3-{[(2S)-1-[(4-Aminobutyl)amino]-3-(4-hydroxyphenyl)-1-oxo-2-propanyl]carbamoyl}-2-oxiranecarboxylic acid] | 6.55 | < 300 | IC50 [3]: 280 nM |
| O=[N+]([O-])NC1=NCCN1Cc1ccc(Cl)nc1 [Compound N10, N-[1-[(6-chloropyridin-3-yl)methyl]-4,5-dihydroimidazol-2-yl]nitramide] | 8.03 | < 300 | – |
| COc1ccc(S(=O)(=O)n2nc(OC(=O)c3ccco3)cc2N)cc1 [Compound S15] | 6.03 | 300 to 2500 | – |
| CC(C)C[C@H](NC(=O)[C@@H](NC(=O)N[C@@H](Cc1ccccc1)C(=O)O)C1CCN=C(N)N1)C(=O)N[C@H](C=O)Cc1ccccc1 (stereo partly drawn) [Compound N9, (2S)-2-[[(1S)-1-(2-amino-1,4,5,6-tetrahydropyrimidin-6-yl)-2-[[(2S)-4-methyl-1-oxo-1-[[(2S)-1-oxo-3-phenylpropan-2-yl]amino]pentan-2-yl]amino]-2-oxoethyl]carbamoylamino]-3-phenylpropanoic acid] | 5.59 | > 2500 | IC50 [3]: 2600 nM |
| O=C(CNC(=O)c1ccco1)OCN1C(=O)c2ccccc2C1=O [Compound S35, (1,3-dioxoisoindol-2-yl)methyl 2-(furan-2-carbonylamino)acetate] | 5.07 | > 2500 | – |
| COc1cc(OC)cc(-c2cc3cnc(N)nc3nc2NC(=O)NC(C)(C)C)c1 [Compound N18, 1-[2-amino-6-(3,5-dimethoxyphenyl)pyrido[2,3-d]pyrimidin-7-yl]-3-tert-butylurea] | 6.24 | 300 to 2500 | IC50 [3]: 580 nM |
| Cc1ccc(S(=O)(=O)n2nc(OC(=O)c3cccs3)cc2N)cc1 [Compound S7, [5-amino-1-(4-methylphenyl)sulfonylpyrazol-3-yl] thiophene-2-carboxylate] | 5.7 | 300 to 2500 | IC50 [3]: 1990 nM |
| COc1ccc(-c2cc(=O)c3c(O)cc(O)c(-c4cc(-c5cc(=O)c6c(O)cc(O)cc6o5)ccc4O)c3o2)cc1 [AMF2, 4’’’-methylamentoflavone] | – | – | IC50 [2]: 1030 nM |
| O=C(OC(C(=O)NCc1cccs1)c1ccccn1)c1cccs1 (stereo not drawn) [Compound S11, [2-oxo-1-pyridin-2-yl-2-(thiophen-2-ylmethylamino)ethyl]thiophene-2-carboxylate] | 5.2 | > 2500 | – |
